# Test system: p-IKKa levels in L363 (NIK translocated multiple myeloma) cells
# Assay: Assay 2: Effect of compounds on p-IKKa levels in L363 (NIK translocated multiple myeloma) cells
# Assay type: cell-based
# Settings: Homo sapiens, L-363, 6 h, read-out: Assay 2 IC50 (nM), p-IKKa (Ser 176/180) in BAFF stimulated L363 cells with MG132, 6 h; average if tested more than once
# Outline: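 L363 cells incubated overnight ± 250 ng/ml BAFF, then 6 h at 37 °C with compound (0.3% DMSO) ± 10 μM MG132. Lysates assayed for p-IKKa (Ser176/180) by AlphaLISA SureFire. IC50 from sigmoidal fit of % inhibition normalized to BAFF/MG132-stimulated and unstimulated controls.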
row,SMILES,IC50 [nM]
1,"COCc1nc(Nc2nccc(-c3cccc(-c4cc([C@]5(O)CCN(C)C5=O)on4)n3)n2)n(C)n1 [Example 271, (R)-3-Hydroxy-3-(3-(6-(2-((3-(methoxymethyl)-1-methyl-1H-1,2,4-triazol-5-yl)amino)pyrimidin-4-yl)pyridin-2-yl)isoxazol-5-yl)-1-methylpyrrolidin-2-one]",> 500
2,"CN1CC[C@@](O)(c2cc(-c3cccc(-c4ccnc(NC5CCC(C(F)(F)F)CC5)n4)n3)no2)C1=O (stereo partly drawn) [Example 451, (R)-3-Hydroxy-1-methyl-3-(3-(6-(2-((4-(trifluoromethyl)cyclohexyl)amino)pyrimidin-4-yl)pyridin-2-yl)isoxazol-5-yl)pyrrolidin-2-one]",> 500
3,"CN1CC[C@@](O)(c2cc(-c3cccc(-c4ccnc(N[C@H](CO)c5ccccn5)n4)n3)no2)C1=O [Example 388, (R)-3-Hydroxy-3-(3-(6-(2-(((S)-2-hydroxy-1-(pyridin-2-yl)ethyl)amino)pyrimidin-4-yl)pyridin-2-yl)isoxazol-5-yl)-1-methylpyrrolidin-2-one]",50 to 500
4,"C[C@@H](Nc1nccc(-c2cccc(-c3cc([C@]4(O)CCN(C)C4=O)on3)n2)n1)C(=O)N1CC(C(F)(F)F)C1 [Example 171, (R)-3-Hydroxy-1-methyl-3-(3-(6-(2-(((R)-1-oxo-1-(3-(trifluoromethyl)azetidin-1-yl)propan-2-yl)amino)pyrimidin-4-yl)pyridin-2-yl)isoxazol-5-yl)pyrrolidin-2-one]",50 to 500
5,"CO[C@@H]1COC[C@H]1Nc1nccc(-c2cccc(-c3cc([C@]4(O)CCN(C)C4=O)on3)n2)n1 [Example 354, (R)-3-Hydroxy-3-(3-(6-(2-(((3R,4S)-4-methoxytetrahydrofuran-3-yl)amino)pyrimidin-4-yl)pyridin-2-yl)isoxazol-5-yl)-1-methylpyrrolidin-2-one]",50 to 500
6,"C[C@@H](O)[C@H](Nc1nccc(-c2cccc(-c3cc([C@]4(O)CCN(C)C4=O)on3)n2)n1)c1ccccc1 [Example 159, (R)-3-Hydroxy-3-(3-(6-(2-(((1R,2R)-2-hydroxy-1-phenylpropyl)amino)pyrimidin-4-yl)pyridin-2-yl)isoxazol-5-yl)-1-methylpyrrolidin-2-one]",50 to 500
7,"Cc1nn(C(F)F)cc1Nc1nccc(-c2cccc(-c3cc([C@]4(O)CCN(C)C4=O)on3)n2)n1 [Example 211, (R)-3-(3-(6-(2-((1-(Difluoromethyl)-3-methyl-1H-pyrazol-4-yl)amino)pyrimidin-4-yl)pyridin-2-yl)isoxazol-5-yl)-3-hydroxy-1-methylpyrrolidin-2-one]",< 50
8,"CN1CC[C@](O)(c2cc(-c3cccc(-c4ccnc(Nc5ccn(C)n5)n4)n3)[nH]n2)C1=O (single isomer, unassigned) [Example 84]",> 500
9,"CN1CC[C@@](O)(c2cc(-c3cccc(-c4ccnc(Nc5cnn(C)c5C(F)F)n4)n3)no2)C1=O (single isomer, unassigned) [Example 198, (*R)-3-(3-(6-(2-((5-(Difluoromethyl)-1-methyl-1H-pyrazol-4-yl)amino)pyrimidin-4-yl)pyridin-2-yl)isoxazol-5-yl)-3-hydroxy-1-methylpyrrolidin-2-one]",< 50
10,"C[C@H](Nc1nccc(-c2cccc(-c3cc([C@]4(O)CCN(C)C4=O)on3)n2)n1)c1cn2ccccc2n1 [Example 394, (R)-3-Hydroxy-3-(3-(6-(2-(((S)-1-(imidazo[1,2-a]pyridin-2-yl)ethyl)amino)pyrimidin-4-yl)pyridin-2-yl)isoxazol-5-yl)-1-methylpyrrolidin-2-one]",> 500
11,"Cc1ccn2cnnc2c1Nc1nccc(-c2cccc(-c3cc([C@]4(O)CCN(C)C4=O)on3)n2)n1 [Example 273, (R)-3-Hydroxy-1-methyl-3-(3-(6-(2-((7-methyl-[1,2,4]triazolo[4,3-a]pyridin-8-yl)amino)pyrimidin-4-yl)pyridin-2-yl)isoxazol-5-yl)pyrrolidin-2-one]",> 500
12,"Cc1nn(CC(C)(C)O)cc1Nc1nccc(-c2cccc(-c3cc([C@@]4(O)C(=O)N(C)CC4(F)F)on3)n2)n1 [Example 235, (R)-4,4-Difluoro-3-hydroxy-3-(3-(6-(2-((1-(2-hydroxy-2-methylpropyl)-3-methyl-1H-pyrazol-4-yl)amino)pyrimidin-4-yl)pyridin-2-yl)isoxazol-5-yl)-1-methylpyrrolidin-2-one]",< 50
13,"CN1CC[C@](O)(c2cn(-c3cccc(-c4ccnc(Nc5cnn(C)c5Cl)n4)n3)cn2)C1=O (single isomer, unassigned) [Example 108]",50 to 500
14,"CN1CC[C@@](O)(c2cc(-c3cccc(-c4ccnc(Nc5cnn6c5CCC6)n4)n3)no2)C1=O [Example 221, (R)-3-(3-(6-(2-((5,6-Dihydro-4H-pyrrolo[1,2-b]pyrazol-3-yl)amino)pyrimidin-4-yl)pyridin-2-yl)isoxazol-5-yl)-3-hydroxy-1-methylpyrrolidin-2-one]",< 50
15,"CN1CC[C@@](O)(c2cc(-c3cccc(-c4ccnc(Nc5cnn6c5CCC6)n4)n3)on2)C1=O [Example 134, (R)-3-(5-(6-(2-((5,6-Dihydro-4H-pyrrolo[1,2-b]pyrazol-3-yl)amino)pyrimidin-4-yl)pyridin-2-yl)isoxazol-3-yl)-3-hydroxy-1-methylpyrrolidin-2-one]",< 50
16,"CN1CC[C@@](O)(c2cc(-c3cccc(-c4ccnc(Nc5ncnc6c5COCC6)n4)n3)no2)C1=O [Example 310, (R)-3-(3-(6-(2-((7,8-Dihydro-5H-pyrano[4,3-d]pyrimidin-4-yl)amino)pyrimidin-4-yl)pyridin-2-yl)isoxazol-5-yl)-3-hydroxy-1-methylpyrrolidin-2-one]",> 500
17,"CN1CC[C@@](O)(c2cc(-c3cccc(-c4ccnc(NC[C@@H]5C[C@@H]5F)n4)n3)no2)C1=O [Example 345, (R)-3-(3-(6-(2-((((cis)-2-Fluorocyclopropyl)methyl)amino)pyrimidin-4-yl)pyridin-2-yl)isoxazol-5-yl)-3-hydroxy-1-methylpyrrolidin-2-one]",50 to 500
18,"C[C@H]1Cn2nc(Nc3nccc(-c4cccc(-c5cc([C@]6(O)CCN(C)C6=O)on5)n4)n3)cc2CO1 (single isomer, unassigned) [Example 115, (R)-3-Hydroxy-1-methyl-3-(3-(6-(2-(((*S)-6-methyl-6,7-dihydro-4H-pyrazolo[5,1-c][1,4]oxazin-2-yl)amino)pyrimidin-4-yl)pyridin-2-yl)isoxazol-5-yl)pyrrolidin-2-one]",50 to 500
19,"CN1CC[C@@](O)(c2cc(-c3cccc(-c4ccnc(N[C@@H]5CCSC5)n4)n3)no2)C1=O (single isomer, unassigned) [Example 458, (R)-3-Hydroxy-1-methyl-3-(3-(6-(2-(((*R)-tetrahydrothiophen-3-yl)amino)pyrimidin-4-yl)pyridin-2-yl)isoxazol-5-yl)pyrrolidin-2-one]",50 to 500
20,"COC[C@H](C)Nc1nccc(-c2cccc(-c3cc([C@]4(O)CCN(C)C4=O)on3)n2)n1 [Example 440, (R)-3-Hydroxy-3-(3-(6-(2-(((S)-1-methoxypropan-2-yl)amino)pyrimidin-4-yl)pyridin-2-yl)isoxazol-5-yl)-1-methylpyrrolidin-2-one]",50 to 500
21,"CN1CC[C@@](O)(c2cc(-c3cccc(-c4ccnc(Nc5cnn6c5NCCC6)n4)c3)no2)C1=O [Example 20, (R)-3-Hydroxy-1-methyl-3-(3-(3-(2-((4,5,6,7-tetrahydropyrazolo[1,5-a]pyrimidin-3-yl)amino)pyrimidin-4-yl)phenyl)isoxazol-5-yl)pyrrolidin-2-one]",> 500
22,"Cc1cnc(C(C)Nc2nccc(-c3cccc(-c4cc([C@]5(O)CCN(C)C5=O)on4)n3)n2)o1 (stereo partly drawn) [Example 381, (3R)-3-Hydroxy-1-methyl-3-(3-(6-(2-((1-(5-methyloxazol-2-yl)ethyl)amino)pyrimidin-4-yl)pyridin-2-yl)isoxazol-5-yl)pyrrolidin-2-one]",50 to 500
23,"C[C@H]1OCC[C@@H]1Nc1nccc(-c2cccc(-c3cc([C@]4(O)CCN(C)C4=O)on3)n2)n1 (single isomer, unassigned) [Example 346]",50 to 500
24,"C[C@H](Nc1nccc(-c2cccc(-c3cc([C@]4(O)CCN(C)C4=O)on3)n2)n1)C(=O)N1CC(C(F)(F)F)C1 [Example 172, (R)-3-Hydroxy-1-methyl-3-(3-(6-(2-(((S)-1-oxo-1-(3-(trifluoromethyl)azetidin-1-yl)propan-2-yl)amino)pyrimidin-4-yl)pyridin-2-yl)isoxazol-5-yl)pyrrolidin-2-one]",50 to 500
25,"CN1CC[C@@](O)(c2cc(-c3cccc(-c4ccnc(N[C@H]5CCOC5)n4)c3)no2)C1=O [Example 11, (R)-3-Hydroxy-1-methyl-3-(3-(3-(2-(((S)-tetrahydrofuran-3-yl)amino)pyrimidin-4-yl)phenyl)isoxazol-5-yl)pyrrolidin-2-one]",> 500
26,"Cc1cnn(-c2nccc(-c3cccc(-c4cc([C@]5(O)CCN(C)C5=O)on4)n3)n2)c1N [Example 35, (R)-3-(3-(6-(2-(5-Amino-4-methyl-1H-pyrazol-1-yl)pyrimidin-4-yl)pyridin-2-yl)isoxazol-5-yl)-3-hydroxy-1-methylpyrrolidin-2-one]",> 500
27,"COCn1ncc(Nc2nccc(-c3cccc(-c4cc([C@]5(O)CCN(C)C5=O)no4)n3)n2)n1 [Example 135, (R)-3-Hydroxy-3-(5-(6-(2-((2-(methoxymethyl)-2H-1,2,3-triazol-4-yl)amino)pyrimidin-4-yl)pyridin-2-yl)isoxazol-3-yl)-1-methylpyrrolidin-2-one]",< 50
28,"CN1CC[C@@](O)(c2cc(-c3cccc(-c4ccnc(Nc5nn(C)c6ccncc56)n4)c3)no2)C1=O [Example 420, (R)-3-Hydroxy-1-methyl-3-(3-(3-(2-((1-methyl-1H-pyrazolo[4,3-c]pyridin-3-yl)amino)pyrimidin-4-yl)phenyl)isoxazol-5-yl)pyrrolidin-2-one]",> 500

# From US20250282768A1 (Janssen Pharmaceutica NV, priority 2022, published 2025)
